The source of these data is a melting point compilation (Tetko et al.; mined from patent text by program, amines drawn as free bases though some values may be those of a salt).

Usually melting point stands for the temperature, or range, at which the solid turns liquid. In turn, `CNC(=O)Nc1cc(C(C)(C)C)on1` showed a melting point of 187 to 188 °C. The compound `CN(C)C=C(C#N)C(=O)NCc1ccccc1Cl` showed a melting point of 144 to 146 °C. Under `CCOC(=O)COc1cc(F)c(C)cc1C(=O)NCc1ccc(Br)cc1F` stands 128 to 129 °C; under `COc1ccc2c(c1)CCC([C@@H]1CC[C@H](O)[C@@]1(C)CC(=O)O)C2` (stereo not given in full), 142 °C; under `CC(=O)Nc1cc(S(=O)(=O)c2ccccc2)ccc1NC(=O)C(C)(O)C(F)(F)F` (stereo not given), 205 to 207 °C.

The compound `O=C(Nc1nnc(C2CC2)o1)C(c1ccccc1)c1ccccc1` yielded a melting point of 159 to 160 °C.

In turn, `CCN1CC2=C3C(=NN(c4ccc(C(C)C)cc4Br)C(=O)N3CC2)C(C)=N1` yielded a melting point of 144 to 146 °C. Take `CCOCc1nc2c(N)nc(C)c(C)c2n1Cc1cc(-c2cccnc2)no1`: the melting point lay within 189 to 191 °C. As for `Cc1ccc(NC(=O)C(N)c2ccc3c(c2)C(C)(C)CCC3(C)C)cc1` (stereo not given), the melting point lay in the range of 161 to 163 °C. Regarding `O=C(O)C=c1sc2n(c1=O)Cc1ccccc1N=2`, the melting point was 263 to 264 °C.

Take `Cn1cc(Oc2ccccc2)c(=O)c(-c2ccccc2)c1`: the melting point is 176 to 177 °C.

Compound `CCC(=O)N[C@@H](C)C(=O)N1CCC[C@H]1C(=O)NC1CCCCCC1` displayed a melting point of 155 to 156 °C. As to `COc1cc2c(CCN)c(C)[nH]c2c(Cl)c1Cl`, the melting point fell in the range of 184 to 186 °C. Next, `COc1ccc2c(N)c3ccccc3nc2c1`: 169 to 170 °C. With `CCCCCCCN=C1SC(=CC(=O)O)C(=O)N1CCCCCCC`, the melting point was in the range of 80 to 81 °C. Next, `OCCOc1ccc(-c2nc(-c3ccc(OCCO)cc3O)nc(-c3ccc(OCCO)cc3O)n2)cc1`: 169 °C; `O=CNc1ccc(-c2cc[nH]n2)cc1`: 139 to 141 °C; `COc1cc2nc(N3CCN(C(=O)c4ccco4)CC3)[nH]c2cc1OC`: 143 to 145 °C. For `CCC1(C)CC2(C(=O)N(C)C(=O)N2C)C(C)C(C)(CC)N1C` (stereo not given), the melting point fell in the range of 77 to 88 °C. Compound `COc1cc(/C=C/C(=O)CC(=O)/C=C/c2cccc(O)c2OC)ccc1O` gave a melting point of 152 to 155 °C. In turn, `COc1cc(CNC(=O)c2nc3ccc(F)c(OCCc4ccc(-c5c(O)noc5C)cc4)c3c(=O)[nH]2)ccc1F` had a melting point of 240 to 242 °C.

In the case of `COCCOC(=O)C1=C(C)NC(C)=C(C(=O)OC(C)C)C1c1ccsc1Cl` (stereo not given), the melting point was in the range of 123 to 124 °C. Under `Cc1cccc(-c2c(CBr)n(C)c(=O)n(C)c2=O)c1` stands 136 to 137 °C.

For `CN1C(=O)C(c2cccc(Br)c2)(c2ccc(OC(F)F)c(C3CC3)c2)N=C1N` (stereo not given), the melting point was 85 to 87 °C.

The compound `Cc1cc(/C=C/CC(C)N(C)C(=O)OC(C)(C)C)cnc1N` (stereo not given) gave a melting point of 78 to 81 °C. As to `COC(=O)c1ccc(Cn2c(=O)c3c(N4CCN(C)CC4)cc(Cl)cc3n(Cc3ccccc3)c2=O)cc1`, the melting point was in the range of 90 to 94 °C.

In turn, `O=CNNc1cccc([N+](=O)[O-])c1` showed a melting point of 168 to 169 °C. The compound `Cc1cc(S(=O)(=O)C[N+](=O)[O-])c(C)cc1Cl` gave a melting point of 113 to 114 °C. In the case of `Cc1nnc(CO)n1-c1ccc(Cl)cc1C(=O)c1ccccc1`, the melting point was in the range of 138 to 142 °C. The compound `CC(C)(Oc1ccc(C#N)cc1)C(O)Cc1cnccn1` (stereo not given) displayed a melting point of 94 to 95 °C. Consider `COc1cc2c(cc1OC)C(c1sc(O)nc1C)=NCC2`, for which the melting point lay in the range of 114 to 120 °C. In turn, `N#Cc1ccccc1-c1ccc(CNC(=S)NN)cc1` registered a melting point of 163 to 164 °C. Regarding `CC(=O)SC1(C(=O)O)CCCC1`, the melting point lay in the range of 120 to 122 °C. Compound `NC(=O)CN1C(=O)OCc2cc(Br)ccc21` had a melting point of 253 to 254 °C.

As for `CC1=Nc2c(-c3ccncc3)c(-c3ccc(F)cc3)nn2C(C)(C)C1`, the melting point was in the range of 171 to 173 °C. `NC(=O)c1nnn(Cc2ccc(C(=O)c3ccc(Cl)cc3)c(Cl)c2)c1N`: the melting point lay within 203 to 205 °C. Consider `CC(=O)Nc1c(C(=O)C2CCCC(C)C2)[nH]c2cc(Cl)ccc12` (stereo not given), for which the melting point lay in the range of 202 to 203 °C. In the case of `CCOC(=O)c1cnn(-c2c(Cl)cc(C(F)(F)F)cc2Cl)c1`, the melting point was in the range of 57 to 59 °C. `Cc1cn([C@H]2C=C[C@@H](O)C2)c(=O)[nH]c1=O` (racemic) registered a melting point of 191 to 192 °C. Next, `NCc1c(CN(Cc2ccccc2)Cc2ccccc2)cccc1C(F)(F)C(F)(F)c1ccccc1`: 172 to 174 °C; `Cc1oc(-c2ccccc2)nc1COc1ccc2cc(CCCCC#N)oc2c1`: 87 to 88 °C; `CN(C(=O)CNc1nc(-c2ccccc2)ncc1[N+](=O)[O-])c1ccccc1`: 194 to 196 °C. Under `O=[N+]([O-])c1ccc2c(c1)C(c1ccccn1)=CC(C(F)(F)F)(C(F)(F)F)O2` stands 105 to 107 °C. For the compound `NC(=O)c1ncn2c1NCCC2c1cccc(C(F)(F)F)c1` (stereo not given), the melting point was in the range of 179 to 181 °C. Under `O=C1C=C(Nc2cc(F)ccc2F)CCN1` stands 252 to 255 °C. Next, `CS(=O)(=O)c1ccc(-c2nc(C(F)(F)F)nc(NN)c2-c2ccc(F)cc2)cc1`: 286 to 290 °C.

Turning to `O=C(O)c1ccc(OCCCCCCc2cccc(O)c2O)cc1`, the melting point fell in the range of 170 to 172 °C. In turn, `Nc1cc(CC(=O)O)cc(C(=O)O)c1` had a melting point of 214 to 220 °C. Under `O=C1c2ccccc2S(=O)(=O)N1c1c(F)c(F)nc(F)c1F` stands 164 to 165 °C; under `COc1ccc(N2CCc3c(C)nc4ccccc4c32)c(C)c1`, 115 to 117 °C; under `COCNC(=S)n1nc(Oc2c(Cl)cc(C(F)(F)F)cc2Cl)cc1C`, 95 to 96 °C. `CC(=O)Nc1ccc2c(O)c(C(=O)NCc3ccc(Cl)cc3)cnc2c1`: the melting point was above 250 °C. Under `COc1cc2ccc3c4cc(OC)c(OC)cc4nc(C)c3c2cc1OC` stands 255 to 257 °C. Compound `Cc1cccc(C)c1C=NNC(=N)NCc1ccccc1` registered a melting point of 125 to 126 °C. For `COc1cc(OC)c(CC(=O)c2ccc(C(C)C)c(OS(N)(=O)=O)c2C(C)C)c(OC)c1`, the melting point lay in the range of 159 to 163 °C.

For the compound `CCOC(=O)c1cn2c(cnc3ccccc32)n1`, the melting point was 184 to 187 °C. `CC(C)COc1ccc2c(n1)CC(c1ccccc1)CC2=O` (stereo not given): the melting point was 157 to 158 °C. Consider `CC(C(=O)Oc1ccc([N+](=O)[O-])cc1)c1ccccc1` (stereo not given), for which the melting point fell in the range of 55 to 56.5 °C. Turning to `COC[C@@H](NC(C)=O)C(=O)NCc1ccc(I)cc1`, the melting point fell in the range of 159 to 160 °C.

The compound `O=C(O)CC1C(CCl)=CCC1O` (stereo not given) registered a melting point of 33 to 34 °C. In turn, `O=C(CCn1cnc2c(=O)[nH]cnc21)NCCc1c[nH]c2ccccc12` returned a melting point of 204 to 206 °C. In the case of `CC(C#N)(CCc1ccccc1C(F)(F)F)NC(=O)c1ccc(OC(F)(F)F)cc1` (stereo not given), the melting point is 87 to 89 °C.

As to `CC(C)NC(C(N)=S)c1ccccc1` (stereo not given), the melting point turned out to be 98.6 °C. `CCN1CC(N(CCN2CCCC2)S(=O)(=O)c2ccc(Nc3nccc(Nc4ccc(F)c(C)c4)n3)cc2)C1` came in with a melting point of 195 °C. Compound `O=C1CC[C@@H](c2ccccc2)[C@H](c2ccccc2)N1CO` (relative stereo) registered a melting point of 127 to 129 °C.
